According to patent publication US20250163052A1, “cGAS INHIBITORS AND USES THEREOF” (Cornell University, priority 2022, published 2025):

Columns and labels:
[1] = Protein binding in mouse brain homogenates; format: in vitro ADME; conditions: for recovery at 6 h / fraction unbound at 6 hr: brain homogenate; for fraction unbound at 6 hr: read-out: % BoundBrain (converted)
[2] = Metabolic stability in mouse liver microsomes; conditions: for Remaining (NCF = 60 min) / Remaining (T = 60 min): mouse liver microsomes; for Remaining (NCF = 60 min): no co-factor (no NADPH); for Remaining (T = 60 min): 60 min with NADPH; for CLint scaled / half-life / microsomal CLint: mouse, liver microsomes
[3] = test system: THP1 cells; test: THP1-Dual cells, cell viability (CellTiter-Glo); format: cell-based
In short: (§1)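 THP1-Dual cells were treated with compounds at various dilutions for 4 h, then transfected with DNA (2 ug/ml) using lipofectamine and incubated overnight. Supernatant Ifnb reporter was read with Quantiluc and nfkb reporter with Quantiblue; viability was measured by CellTiter-Glo.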

[4] = Metabolic stability in human liver microsomes; conditions: for Remaining (NCF = 60 min) / Remaining (T = 60 min): human liver microsomes; for Remaining (NCF = 60 min): no co-factor (no NADPH); for Remaining (T = 60 min): 60 min with NADPH; for CLint scaled / half-life / microsomal CLint: human, liver microsomes
[5] = test system: IFNB; test: THP1-Dual cells transfected with DNA, Ifnb expression (Quantiluc); format: cell-based; conditions: Homo sapiens; for inhibition at 10 µM: THP-1, 10 μM; for inhibition at 30 µM: THP-1, 30 μM
In short: as §1

[6] = test system: NFkB-SEAP; test: THP1-Dual cells transfected with DNA, nfkb expression (Quantiblue); format: cell-based; conditions: Homo sapiens; for inhibition at 10 µM: THP-1, 10 μM; for inhibition at 30 µM: THP-1, 30 μM
In short: as §1

[7] = molecular target: h-cGAS (Homo sapiens, UniProt Q8N884); test: Cell-free human cGAS enzyme inhibition assay (ATP depletion, Kinase-Glo Max); format: biochemical; conditions: 3 h; for inhibition at 1 µM: read-out: h-cGAS, conc. 1 μM; for inhibition at 10 µM: read-out: h-cGAS, conc. 10 μM
Sequence of h-cGAS (Q8N884 whole entry): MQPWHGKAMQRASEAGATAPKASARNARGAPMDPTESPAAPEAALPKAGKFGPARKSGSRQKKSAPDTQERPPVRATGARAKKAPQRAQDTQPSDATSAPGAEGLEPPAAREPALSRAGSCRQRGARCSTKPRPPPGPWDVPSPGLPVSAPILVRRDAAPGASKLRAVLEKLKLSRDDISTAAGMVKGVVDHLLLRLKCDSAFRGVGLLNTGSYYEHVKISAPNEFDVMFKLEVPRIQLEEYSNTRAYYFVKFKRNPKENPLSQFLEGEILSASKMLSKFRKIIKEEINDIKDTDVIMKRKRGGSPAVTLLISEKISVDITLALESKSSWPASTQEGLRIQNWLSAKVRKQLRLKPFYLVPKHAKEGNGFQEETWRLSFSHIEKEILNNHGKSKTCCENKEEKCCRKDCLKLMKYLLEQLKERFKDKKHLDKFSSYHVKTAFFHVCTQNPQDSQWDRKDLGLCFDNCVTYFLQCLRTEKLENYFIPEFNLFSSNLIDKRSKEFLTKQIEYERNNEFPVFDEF

[8] = molecular target: m-cGAS (Mus musculus, UniProt Q8C6L5); test: Cell-free mouse cGAS enzyme inhibition assay (ATP depletion, Kinase-Glo Max); format: biochemical; conditions: 1 h; for inhibition at 1 µM: read-out: m-cGAS, conc. 1 μM; for inhibition at 10 µM: read-out: m-cGAS, conc. 10 μM
Sequence of m-cGAS (Q8C6L5 whole entry): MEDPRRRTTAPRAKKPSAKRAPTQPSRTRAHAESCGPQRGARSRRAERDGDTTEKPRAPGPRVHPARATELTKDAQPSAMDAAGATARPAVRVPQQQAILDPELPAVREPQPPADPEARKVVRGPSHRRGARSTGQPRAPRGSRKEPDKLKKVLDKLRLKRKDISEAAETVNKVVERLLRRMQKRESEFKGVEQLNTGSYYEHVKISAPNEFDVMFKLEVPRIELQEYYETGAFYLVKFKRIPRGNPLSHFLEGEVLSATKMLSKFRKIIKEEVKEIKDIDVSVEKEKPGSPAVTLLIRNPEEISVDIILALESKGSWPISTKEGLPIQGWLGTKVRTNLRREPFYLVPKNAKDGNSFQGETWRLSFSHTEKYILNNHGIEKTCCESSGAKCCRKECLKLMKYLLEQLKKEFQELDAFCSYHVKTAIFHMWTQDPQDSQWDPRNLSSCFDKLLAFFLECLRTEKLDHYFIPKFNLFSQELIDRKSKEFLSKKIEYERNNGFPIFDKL

In the case of `CCCc1nc2c(C)cc(-c3nc4ccccc4n3C)cc2n1Cc1ccc(-c2ccccc2C(=O)O)cc1` [Telmisartan, reference compound], the LogK [1] is reported as 1.72, the “% Remaining at 6 hr” value [1] is reported as 103.38% and the recovery at 6 h [1] is reported as 99.3%. It also gave a fraction unbound at 6 hr [1] of 0.0188.

With `Cn1cc(-c2cc(Cl)c(Cl)c3sc4c(c23)CCN(C(=O)CN)C4)cn1` [Compound 74] the “Remaining (NCF = 60 min)” value [2] was 97.8%, the “Remaining (T = 60 min)” value [2] was 84.8% and the CLint scaled [2] was less than 38 mL/min/kg. For the same compound, the half-life [2] was greater than 2.42 h, the microsomal CLint [2] was less than 9.6 µL/min/mg and the “Cell viability 10 μM” value [3] was “+++ (+, ++, and +++ mean the compound respectively shows 25-49%; 50-74%; or 75-100% viability to cells)”. For the same compound, the “Cell viability 30 μM” value [3] was “− (Cell viability <24%, in THP1 cells is expressed as “−”)”, the “Remaining (NCF = 60 min)” value [4] was 89.2% and the “Remaining (T = 60 min)” value [4] was 93.6%. It also gave a CLint scaled [4] of less than 8.6 mL/min/kg, a half-life [4] greater than 2.42 h and a microsomal CLint [4] of less than 9.6 µL/min/mg. For the same compound, the LogK [1] was 1.12, the “% Remaining at 6 hr” value [1] was 98.24% and the recovery at 6 h [1] was 92.8%. It also gave a fraction unbound at 6 hr [1] of 0.0706, an inhibition at 10 µM [5] of 75 to 100% and an inhibition at 30 µM [5] of 75 to 100%. It also gave an inhibition at 10 µM [6] of 25 to 49%, an inhibition at 30 µM [6] of 50 to 74% and an inhibition at 1 µM [7] of 0 to 24%. It also gave an inhibition at 10 µM [7] of 25 to 49%, an inhibition at 1 µM [8] of 25 to 49% and an inhibition at 10 µM [8] of 75 to 100%.

With `Cn1cc(-c2cc(Cl)c(Cl)c3nc4c(n23)CN(C(=O)CO)CC4)cn1` [Compound 99] the LogK [1] was 0.64, the “% Remaining at 6 hr” value [1] was 99.35% and the recovery at 6 h [1] was 90.1%. For the same compound, the fraction unbound at 6 hr [1] was 0.19, the inhibition at 10 µM [7] was 0 to 24% and the inhibition at 10 µM [8] was 0 to 24%.

In the case of `Cn1cc(-c2cc(Cl)c(Cl)c3sc4c(c23)CN(C(=O)CN)CC4)cn1` [Compound 54], the “Remaining (NCF = 60 min)” value [2] is reported as 94.5%, the “Remaining (T = 60 min)” value [2] is reported as 82.0% and the CLint scaled [2] is reported as less than 38 mL/min/kg. The half-life [2] was greater than 2.42 h, the microsomal CLint [2] was less than 9.6 µL/min/mg and the “Cell viability 10 μM” value [3] was “++ (+, ++, and +++ mean the compound respectively shows 25-49%; 50-74%; or 75-100% viability to cells)”. For the same compound, the “Cell viability 30 μM” value [3] was “− (Cell viability <24%, in THP1 cells is expressed as “−”)”, the “Remaining (NCF = 60 min)” value [4] was 129.8% and the “Remaining (T = 60 min)” value [4] was 85.4%. For the same compound, the CLint scaled [4] was less than 8.6 mL/min/kg, the half-life [4] was greater than 2.42 h and the microsomal CLint [4] was less than 9.6 µL/min/mg. For the same compound, the inhibition at 10 µM [5] was 75 to 100%, the inhibition at 30 µM [5] was 75 to 100% and the inhibition at 10 µM [6] was 75 to 100%. The inhibition at 30 µM [6] was 75 to 100%, the inhibition at 1 µM [7] was 50 to 74% and the inhibition at 10 µM [7] was 75 to 100%. It also gave an inhibition at 1 µM [8] of 0 to 24% and an inhibition at 10 µM [8] of 50 to 74%.

For `Cn1cc(-c2cc(Cl)c(Cl)c3c2c2c(n3C)CCN(C(=O)CN)C2)cn1` [Compound 11], the “Remaining (NCF = 60 min)” value [2] was 97.7%, the “Remaining (T = 60 min)” value [2] was 80.1% and the CLint scaled [2] was less than 38 mL/min/kg. For the same compound, the half-life [2] was greater than 2.42 h, the microsomal CLint [2] was less than 9.6 µL/min/mg and the “Cell viability 10 μM” value [3] was “++ (+, ++, and +++ mean the compound respectively shows 25-49%; 50-74%; or 75-100% viability to cells)”. The “Cell viability 30 μM” value [3] was “− (Cell viability <24%, in THP1 cells is expressed as “−”)”, the “Remaining (NCF = 60 min)” value [4] was 116.1% and the “Remaining (T = 60 min)” value [4] was 88.2%. The CLint scaled [4] was less than 8.6 mL/min/kg, the half-life [4] was greater than 2.42 h and the microsomal CLint [4] was less than 9.6 µL/min/mg. For the same compound, the inhibition at 10 µM [5] was 50 to 74%, the inhibition at 30 µM [5] was 75 to 100% and the inhibition at 10 µM [6] was less than 24%. For the same compound, the inhibition at 30 µM [6] was 50 to 74%, the inhibition at 1 µM [7] was 75 to 100% and the inhibition at 10 µM [7] was 75 to 100%. The inhibition at 10 µM [8] was 25 to 49%.
